Laboratory results reported in ChEMBL document CHEMBL4411282, “Fragment-based drug discovery of triazole inhibitors to block PDEδ-RAS protein-protein interaction” (Eur J Med Chem, 2019).

system: A549; assay: Antiproliferative activity against human A549 cells harboring KRAS G12S point mutant after 72 hrs by SRB assay; settings: A549, 72 h

IC50 [µM]	Structure (SMILES)
36	COc1ccc(CSc2nnc(-c3ccc(OCC(=O)Nc4cnn(C)c4)cc3)n2Cc2ccccc2)cc1
20.3	CC(C)Cc1nnc(SCc2ccc(C(=O)Nc3cccc(F)c3)cc2)n1Cc1ccccc1
17.1	COc1ccc(CSc2nnc(-c3ccc(OCC(=O)Nc4ccc(N(C)C)cc4)cc3)n2Cc2ccccc2)cc1
6.4	c1ccc(Cn2c(-c3ccc(OC[C@H](C4CCNCC4)n4c(-c5ccccc5)nc5ccccc54)cc3)nc3ccccc32)cc1
24.1	COc1ccc(CCc2nnc(-c3ccc(OCC(=O)Nc4cnn(C)c4)cc3)n2Cc2ccccc2)cc1
11.3	COc1ccc(CSc2nnc(-c3ccc(OCC(=O)Nc4cccnc4)cc3)n2Cc2ccccc2)cc1
> 50	COc1ccc(CCc2nnc(-c3ccc(OC(C)C(=O)Nc4cnn(C)c4)cc3)n2Cc2ccccc2)cc1 (stereo not drawn)
> 50	CCC(Oc1ccc(-c2nnc(CCc3ccc(OC)cc3)n2Cc2ccccc2)cc1)C(=O)Nc1cnn(C)c1 (stereo not drawn)
32.6	CC(C)Cc1nnc(SCc2ccc(C(=O)NC3CCCCC3)cc2)n1Cc1ccccc1
> 50	COc1ccc(CCc2nnc(-c3ccc(OC(C)(C)C(=O)Nc4cnn(C)c4)cc3)n2Cc2ccccc2)cc1
18.3	COc1ccc(CSc2nnc(-c3ccc(OCC(=O)Nc4cc(C)nn4C)cc3)n2Cc2ccccc2)cc1
19.3	COc1ccc(CSc2nnc(-c3ccc(OCC(=O)NC4CCCCC4)cc3)n2Cc2ccccc2)cc1
10.3	CC(C)Cc1nnc(SCc2ccc(C(=O)Nc3ccc4ncccc4c3)cc2)n1Cc1ccccc1
